The values below come from patent publication US4545932A, “Glucosaminyl muramyl peptide derivatives” (Dainippon Pharmaceutical Co., Ltd., priority 1982, dated 1985).

Common to all, as to format: in vivo
One series can be described thus: Pyrogenicity in rabbits. The conditions noted are these: for pyrogenicity compared with GMP3 -A: similar experiments, no data given; for Pyrogenicity in rabbits: injected into ear vein, three rabbits per group. The procedure: Rabbits (each group: three rabbits) were used. Test compounds dissolved in a physiological saline solution were each injected into ear vein of rabbits. The difference between maximum body temperature within three hours after the injection of test compound and the body temperature before the injection was regarded as rise in body temperature. The degree of pyrogenicity was evaluated according to the following criterion: […]

Another series deals with various microorganisms. Description: Antiinfectious effect in mice. Particulars: similar experiments; no data given. The text has this: (§1) Std-ddY male mice weighing about 23 g (each group: 8 mice) were used. Test compounds dissolved in a physiological saline solution were each intravenously administered to mice once a day 1, 2 and 3 days before the infection. Twenty-four hours after the final administration of test compounds, the mice were infected with various microorganisms suspended in saline (in case of Staphylococcus aureus and Candida albicans) or in Trypto-Soy Broth (manufactured by Eiken Chemical Co., Ltd., Japan) (in case of Pseudomonas aeruginosa and Escherichia coli) under the conditions as shown in Table 1. When the experiment was repeated twice or more, the data were pooled.
Besides, as to the compounds of Examples 8, 18, 36, 37 and 45 (derivatives of GMP3 -A), similar experiments were done.

In a further series the test system is Escherichia coli P-5101. The experiment in a line: Prophylactic effect on experimental infection, Escherichia coli. Particulars: Std-ddY male mice, 7 days after infection.
Text: as §1
(§2) ^a Test compounds were intravenously administered once a day 1, 2 and
(§3) 3 days before infection.
(§4) ^b Figures represent (number of survivals)/(number of animals tested)
(§5) and figures in parenthesis represent percent survival.

For the next series, the system named is Candida albicans 3170. Description: Prophylactic effect on experimental infection, Candida albicans. Particulars: Std-ddY male mice, 7 days after infection.
Text: as §1
3170 fungal sus- infection
as §2, §3, §4, §5

Series [1] has as its system Staphylococcus aureus No. 50774. The experiment in a line: Prophylactic effect on experimental infection, Staphylococcus aureus. Particulars: Std-ddY male mice, 14 days after infection.
Text: as §1, §2, §3, §4, §5

The subject of series [2] is Pseudomonas aeruginosa No. 12. The experiment in a line: Prophylactic effect on experimental infection, Pseudomonas aeruginosa. Particulars: Std-ddY male mice, 7 days after infection.
Text: as §1, §2, §3, §4, §5

Where [3] appears, read: Dose 0.2 mg/kg i.v. once a day 1, 2 and 3 days before infection.
Where [4] appears, read: Dose 0.8 mg/kg i.v. once a day 1, 2 and 3 days before infection.
The mark [5] stands for this setting: Dose 3.1 mg/kg i.v. once a day 1, 2 and 3 days before infection.
Where [6] appears, read: Dose 12.5 mg/kg i.v. once a day 1, 2 and 3 days before infection.
Setting [7] is: Dose 50 mg/kg i.v. once a day 1, 2 and 3 days before infection.
The mark [8] stands for this setting: Dose 0.05 mg/kg i.v. once a day 1, 2 and 3 days before infection.
Where [9] appears, read: Dose 0.125 mg/kg i.v. once a day 1, 2 and 3 days before infection.
[10] abbreviates: Dose 0.0125 mg/kg i.v. once a day 1, 2 and 3 days before infection.

Consider `CCCCCCCCCCCCCCCCCC(=O)NC(CCCC(NC(=O)CCC(NC(=O)C(C)NC(=O)C(C)OC1C(NC(C)=O)C(O)OC(CO)C1OC1OC(CO)C(O)C(O)C1NC(C)=O)C(N)=O)C(=O)[O-])C(N)=O.[Na+]` (stereo not shown) [Example 18], for which the “pyrogenicity compared with GMP3 -A” value in “Pyrogenicity in rabbits” was “less pyrogenicity than GMP3 -A”. The “antiinfectious effect compared with GMP3 -A” value in the series on various microorganisms is “more potent antiinfectious effect”.
Taken in the same sequence, the figures for `CCCCCCCCC=CCCCCCCCC(=O)NC(CCCC(NC(=O)CCC(NC(=O)C(C)NC(=O)C(C)OC1C(NC(C)=O)C(O)OC(CO)C1OC1OC(CO)C(O)C(O)C1NC(C)=O)C(N)=O)C(=O)[O-])C(N)=O.[Na+]` (stereo not shown) [Example 8] were “less pyrogenicity than GMP3 -A” and “more potent antiinfectious effect”.
Consider `CC(=O)NC1C(OC2C(CO)OC(O)C(NC(C)=O)C2OC(C)C(=O)NC(C)C(=O)NC(CCC(=O)NC(CCCC(N)C(N)=O)C(=O)NC(C)C(=O)O)C(N)=O)OC(CO)C(O)C1O` [GMP4 -A, β-N-acetylglucosaminyl-(1→4)-N-acetylmuramyl-L-alanyl-D-isoglutaminyl-(L)-meso-2,6-diaminopimelic acid-(D)-amide-(L)-D-alanine, reference compound], for which the “(number of survivals)/(number of animals tested)” value in the series on Escherichia coli P-5101 (setting [3]) is reported as 0/8; with Escherichia coli P-5101 (setting [4]), 0/8; with Escherichia coli P-5101 (setting [5]) it was 5/24; with Escherichia coli P-5101 (setting [6]) it was 10/24; in the series with Escherichia coli P-5101 (setting [7]), 10/16; in the series with Candida albicans 3170 (setting [5]), 2/8. Also, the “(number of survivals)/(number of animals tested)” value is 4/8 in the series on Candida albicans 3170 (setting [6]); 6/8 in the series with Candida albicans 3170 (setting [7]); 3/24 in series [1] (setting [8]); 0/8 in series [1] (setting [9]); 6/16 in series [1] (setting [3]); 11/32 in series [1] (setting [4]). Also, the “(number of survivals)/(number of animals tested)” value is recorded as 11/32 in series [1] (setting [5]); 23/32 in series [1] (setting [6]); 12/40 in series [2] (setting [10]); 16/48 in series [2] (setting [8]); 23/56 in series [2] (setting [3]); 31/72 in series [2] (setting [4]). Besides, the “(number of survivals)/(number of animals tested)” value in series [2] (setting [5]) is reported as 27/64; in series [2] (setting [6]), 32/48. For the same compound, the percent survival was 0% with Escherichia coli P-5101 (setting [3]); 0% in the series with Escherichia coli P-5101 (setting [4]); 20.8% with Escherichia coli P-5101 (setting [5]); 41.7% in the series on Escherichia coli P-5101 (setting [6]); 62.5% in the series on Escherichia coli P-5101 (setting [7]); 25% with Candida albicans 3170 (setting [5]). The percent survival turned out to be 50% in the series with Candida albicans 3170 (setting [6]); 75% in the series with Candida albicans 3170 (setting [7]); 12.5% in series [1] (setting [8]); 0% in series [1] (setting [9]); 37.5% in series [1] (setting [3]); 34.4% in series [1] (setting [4]). Also, the percent survival in series [1] (setting [5]) is 34.4%; in series [1] (setting [6]) it was 71.9%; in series [2] (setting [10]), 30%; in series [2] (setting [8]), 33.3%; in series [2] (setting [3]), 41.1%; in series [2] (setting [4]), 43.1%. Also, the percent survival in series [2] (setting [5]) came out at 42.2%; in series [2] (setting [6]), 66.7%. For the same compound, the Pyrogenicity in rabbits entry in “Pyrogenicity in rabbits” (Dose 0.1 mg/rabbit) was “- (one animal showed rise in body temperature of 0.6 °C or more)”; in the series “Pyrogenicity in rabbits” (Dose 0.3 mg/rabbit), “+ (two or more animals showed rise in body temperature of 0.6 °C or more)”; in “Pyrogenicity in rabbits” (Dose 1 mg/rabbit), “+ (two or more animals showed rise in body temperature of 0.6 °C or more)”; in “Pyrogenicity in rabbits” (Dose 3 mg/rabbit), “+ (two or more animals showed rise in body temperature of 0.6 °C or more)”; in the series “Pyrogenicity in rabbits” (Dose 10 mg/rabbit), “+ (two or more animals showed rise in body temperature of 0.6 °C or more)”.
